Data taken from PubChem BioAssay AID624024 (Broad Institute, 2012).
Records with an inconclusive call do not appear. The source made the active and inactive calls.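 Rule for the calls: active = fitted curve rises past 40% HDL binding increase at a concentration no higher than twice the top valid tested dose; inconclusive = no clear call, values can overlap the other calls; inactive = effects opposite to the expected rise, plus the rest.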

Target: Scavenger receptor class B member 1 (Mus musculus) (UniProt Q61009)
Sequence (Q61009 whole entry, looked up): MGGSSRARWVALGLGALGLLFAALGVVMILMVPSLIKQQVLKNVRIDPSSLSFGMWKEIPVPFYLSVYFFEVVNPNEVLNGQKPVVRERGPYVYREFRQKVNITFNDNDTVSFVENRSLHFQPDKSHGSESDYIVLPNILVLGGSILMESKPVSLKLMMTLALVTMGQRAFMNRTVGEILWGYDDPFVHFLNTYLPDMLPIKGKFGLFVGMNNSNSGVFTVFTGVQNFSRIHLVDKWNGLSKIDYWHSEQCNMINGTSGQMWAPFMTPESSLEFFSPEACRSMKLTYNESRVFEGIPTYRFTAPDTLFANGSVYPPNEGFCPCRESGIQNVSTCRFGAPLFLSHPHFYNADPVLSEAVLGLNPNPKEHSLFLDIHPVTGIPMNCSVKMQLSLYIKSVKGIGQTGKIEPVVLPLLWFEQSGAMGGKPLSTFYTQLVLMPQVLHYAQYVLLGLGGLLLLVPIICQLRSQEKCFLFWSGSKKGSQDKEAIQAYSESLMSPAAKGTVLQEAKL
Assay: modulators of Alexa488-HDL binding to SR-BI, dose response, orthogonal assay for SR-BI HDL uptake inhibitor project, cell-based, ldlA[mSR-BI] CHO, Alexa 488-HDL, powder samples, set 3 (AID 624024)
Details: ldlA[mSR-BI] CHO cells, Alexa488-HDL binding fluorescence, 3 h; for HDL binding change, positive = increase: at 35 µM (top of the series)

Compound | AC40 [nM] | HDL binding change, positive = increase
CC(C)NC(=O)Nc1cccc2c1O[C@@H](CN(C)S(=O)(=O)c1ccc(Cl)cc1)[C@H](C)CN([C@H](C)CO)C2=O | 544 | 
C[C@@H]1CN([C@H](C)CO)C(=O)c2cc(NC(=O)C3CCCCC3)ccc2O[C@H]1CN(C)S(=O)(=O)c1ccccc1Cl | 222 | 
CNC[C@@H]1Oc2ccc(NC(=O)NC(C)C)cc2C(=O)N([C@H](C)CO[Si](C)(C)C(C)(C)C)C[C@H]1C | 3380 | 
C[C@@H]1CN([C@H](C)CO)C(=O)c2cc(NC(=O)C3CCOCC3)ccc2O[C@H]1CN(C)S(=O)(=O)c1ccc(Cl)cc1 | 1970 | 
C[C@@H]1CN([C@H](C)CO[Si](C)(C)C(C)(C)C)C(=O)c2cc(NC(=O)C3CCCCC3)ccc2O[C@H]1CN(C)C(=O)c1ccc(Cl)cc1 | 6330 | 
C[C@@H]1CN([C@H](C)CO)C(=O)c2cc(NC(=O)Nc3ccc(F)cc3)ccc2O[C@H]1CN(C)S(=O)(=O)c1ccc(Cl)cc1 | 33.2 | 
CCCCCCC1CCC/C1=N\NC(N)=S (configuration not stated) | 2.72 | 
CCOc1cc2c3c(c1)C1(C(=O)N3C(C)(C)CC2C)C(C#N)=C(N)N2C(=C1C#N)Nc1ccccc12 (configuration not stated) | 3670 | 
O=C1C2C3C=CC(C3)C2C(=O)N1c1cccc(N2C(=O)C3C4C=CC(C4)C3C2=O)n1 (configuration not stated) |  | 4.51% (inactive)
C=CCOC(=O)N(C)C[C@@H]1Oc2ccc(NC(=O)NC(C)C)cc2C(=O)N([C@H](C)CO[Si](C)(C)C(C)(C)C)C[C@H]1C |  | 90.1% (inactive)
C[C@@H]1CN([C@H](C)CO)C(=O)c2cc(NC(=O)Cc3cn(C)c4ccccc34)ccc2O[C@H]1CN(C)S(=O)(=O)c1ccc(Cl)cc1 | 4.61 | 
CC(C)NC(=O)Nc1ccc2c(c1)C(=O)N([C@@H](C)CO)C[C@H](C)[C@@H](CN(C)S(=O)(=O)c1ccc(Cl)cc1)O2 | 671 | 
CC(C)(C)OC(=O)N1CCN(c2ccc(NC(=O)c3cc([N+](=O)[O-])ccc3Cl)cc2)CC1 | 155 | 
CC(C)CN(C(=O)COC(=O)C12CC3CC(CC(O)(C3)C1)C2)C1CCS(=O)(=O)C1 (configuration not stated) | 772 | 
Cc1noc(C)c1S(=O)(=O)Nc1ccc2c(c1)C(=O)N([C@H](C)CO)C[C@@H](C)[C@H](CN(C)S(=O)(=O)c1ccc(Cl)cc1)O2 | 138 | 
CC(C)NC(=O)Nc1ccc2c(c1)C(=O)N([C@@H](C)CO)C[C@@H](C)[C@H](CN(C)S(=O)(=O)c1ccc(Cl)cc1)O2 | 20.3 | 

Compound | AC40 [nM] | HDL binding change, positive = increase
C=CCOC(=O)N(C)C[C@@H]1Oc2ccc(NC(=O)OCC3c4ccccc4-c4ccccc43)cc2C(=O)N([C@H](C)CO)C[C@H]1C | 1870 | 
COc1c(NC(=O)C(=O)c2ccc(OCCN3CCOCC3)c3ccccc23)cc(C(C)(C)C)cc1NS(C)(=O)=O | 218 | 
C[C@@H]1CN([C@H](C)CO)C(=O)c2cc(NC(=O)C3CCCCC3)ccc2O[C@H]1CN(C)C(=O)c1ccc(Cl)cc1 | 17500 | 
C[C@@H]1CN([C@H](C)CO)C(=O)c2cc(NC(=O)C3CCCCC3)ccc2O[C@H]1CN(C)S(=O)(=O)c1cccc(Cl)c1 | 3040 | 
Cc1ccc(OCc2cc(C(=O)N3CCCC(O)C3)no2)cn1 (configuration not stated) |  | 36% (inactive)
C=CCOC(=O)N(C)C[C@@H]1Oc2ccc(N)cc2C(=O)N([C@H](C)CO[Si](C)(C)C(C)(C)C)C[C@H]1C | 3760 | 
O=C(O)CC(C(=O)Nc1cccc(C(F)(F)F)c1)C1CCCO1 (configuration not stated) |  | 64.3% (inactive)
CC(C)NC(=O)Nc1ccc2c(c1)C(=O)N([C@@H](C)CO)C[C@H](C)[C@H](CN(C)S(=O)(=O)c1ccc(Cl)cc1)O2 | 12.1 | 
CC(C)NC(=O)Nc1ccc2c(c1)C(=O)N([C@H](C)CO)C[C@@H](C)[C@@H](CN(C)S(=O)(=O)c1ccc(Cl)cc1)O2 | 3690 | 
C[C@@H]1CN([C@H](C)CO)C(=O)c2cc(NC(=O)C3CCCCC3)ccc2O[C@H]1CN(C)S(=O)(=O)c1ccc(Cl)cc1 | 33.2 | 
CC(C)NC(=O)Nc1ccc2c(c1)C(=O)N([C@@H](C)CO)C[C@@H](C)[C@@H](CN(C)S(=O)(=O)c1ccc(Cl)cc1)O2 | 57.6 | 
CC(=O)Nc1ccc(Cl)c(C(=O)Nc2ccc(N3CCN(C(=O)OC(C)(C)C)CC3)cc2)c1 | 16.6 | 
C[C@@H]1CN([C@H](C)CO)C(=O)c2cc(NC(=O)Cc3cn(C)c4ccccc34)ccc2O[C@H]1CN(C)S(=O)(=O)c1ccc(F)cc1 | 1.76 | 
C[C@H](C(=O)NC1CCCC1)N(C(=O)Cn1nnc(-c2ccc3c(c2)OCO3)n1)C1CCCCC1 | 16.7 | 
COCC(=O)N1CCc2cc(-c3csc(NC(=O)c4cc(OC)cc(OC)c4)n3)ccc21 | 19.9 | 
COc1ccc2c(c1)CC(C1(O)C(=O)N(C)c3ccccc31)C2=O (configuration not stated) |  | 37.2% (inactive)
